Data on 3 compounds can be found in patent publication US6759547B1, “5,6,7,8-tetrahydronaphthalen-2-yl 2,6-difluoroheptatrienoic acid derivatives having serum glucose reducing activity” (Allergan, Inc., priority 2003, dated 2004).

Assay [1] deals with T1, RARβ (Homo sapiens, UniProt P10826).
T1 sequence (P10826 1-455): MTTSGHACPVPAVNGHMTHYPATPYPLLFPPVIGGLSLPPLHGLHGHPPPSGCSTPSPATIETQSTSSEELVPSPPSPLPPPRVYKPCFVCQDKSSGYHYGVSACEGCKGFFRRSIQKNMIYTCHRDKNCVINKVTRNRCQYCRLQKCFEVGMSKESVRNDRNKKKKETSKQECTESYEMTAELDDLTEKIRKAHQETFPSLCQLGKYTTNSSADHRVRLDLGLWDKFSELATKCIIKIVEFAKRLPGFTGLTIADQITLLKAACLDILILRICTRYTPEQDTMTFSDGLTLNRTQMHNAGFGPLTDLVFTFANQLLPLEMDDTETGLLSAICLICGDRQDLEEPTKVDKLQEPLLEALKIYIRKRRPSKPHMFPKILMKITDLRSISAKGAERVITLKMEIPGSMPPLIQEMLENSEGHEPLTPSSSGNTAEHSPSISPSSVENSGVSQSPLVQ
The assay is described as follows: ligand binding assay, RARβ. Particulars: read-out: RAR Bind. K1 β.
Description: (§2) The results obtained in this assay are expressed in EC50 numbers, as they are also in the chimeric receptor transactivation assay. The results of the ligand binding assay are expressed in Ki numbers.

The target of assay [2] is T2, RXRβ (Homo sapiens, UniProt P28702).
T2 construct: expressed in transfected cells
T2 sequence (P28702 1-533): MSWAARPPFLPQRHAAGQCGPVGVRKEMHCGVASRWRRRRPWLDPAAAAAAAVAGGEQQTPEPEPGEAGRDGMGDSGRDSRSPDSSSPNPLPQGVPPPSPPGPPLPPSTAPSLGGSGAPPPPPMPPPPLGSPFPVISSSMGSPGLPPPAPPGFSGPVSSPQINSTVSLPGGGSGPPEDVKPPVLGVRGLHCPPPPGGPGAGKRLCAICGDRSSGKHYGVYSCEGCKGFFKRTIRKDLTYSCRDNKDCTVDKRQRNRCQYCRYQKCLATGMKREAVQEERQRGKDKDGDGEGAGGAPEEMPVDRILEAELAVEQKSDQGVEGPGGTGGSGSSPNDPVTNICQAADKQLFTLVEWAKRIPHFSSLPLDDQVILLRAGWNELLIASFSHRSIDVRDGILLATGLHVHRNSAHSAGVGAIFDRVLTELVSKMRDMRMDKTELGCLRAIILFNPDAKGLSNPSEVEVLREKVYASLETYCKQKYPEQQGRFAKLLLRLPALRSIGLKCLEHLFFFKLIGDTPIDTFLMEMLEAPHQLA
The assay is described as follows: holoreceptor transactivation assay, RXRβ. It is filed as cell-based. Particulars: for RXR Trans. efficacy β: efficacy as a percentage compared to the standard compound; for EC50: holoreceptor assay, read-out: RXR Trans. EC50 β; for efficacy in activating RXRβ compared with RXRα and RXRγ: transactivation, comparison of subtypes. The text has this:
(§1) Particularly, the transactivation data pertaining to activation of the RAR receptors were obtained in the chimeric assay, and the transactivation data pertaining to the activation of RXR receptors were obtained in the holoreceptor assay.

Assay [3] has as its target T3, RARβ (Homo sapiens, UniProt P10826).
T3 sequence (P10826 183-417 limits assumed): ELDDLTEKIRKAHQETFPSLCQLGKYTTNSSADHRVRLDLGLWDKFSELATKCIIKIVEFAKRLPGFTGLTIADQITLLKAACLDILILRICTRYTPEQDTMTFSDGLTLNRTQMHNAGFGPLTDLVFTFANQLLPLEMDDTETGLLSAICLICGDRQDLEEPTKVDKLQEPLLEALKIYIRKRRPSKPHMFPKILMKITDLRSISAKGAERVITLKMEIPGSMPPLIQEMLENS
Description: chimeric receptor transactivation assay, RARβ. Type of assay: cell-based. Particulars: for EC50: chimeric assay, read-out: RAR Trans. EC50 β; for RAR Trans. efficacy β: efficacy as a percentage compared to the standard compound. The text has this: One such assay is a chimeric receptor transactivation assay which tests for agonist-like activity in the RARα RARβ and RARγ receptor subtypes, and which is based on work published by Feigner P. L. and Holm M. (1989) Focus, 112 is described in detail in U.S. Pat. No. 5,455,265. The specification of U.S. Pat. No. 5,455,265 is hereby expressly incorporated by reference.
Table 1 discloses the activity of certain exemplary compounds of the invention in the above-described receptor transactivation and binding assays. Particularly, the transactivation data pertaining to activation of the RAR receptors were obtained in the chimeric assay, and the transactivation data pertaining to the activation of RXR receptors were obtained in the holoreceptor assay.

Assay [4] concerns the target T4, RARα (Homo sapiens, UniProt P10276).
T4 sequence (P10276 1-462): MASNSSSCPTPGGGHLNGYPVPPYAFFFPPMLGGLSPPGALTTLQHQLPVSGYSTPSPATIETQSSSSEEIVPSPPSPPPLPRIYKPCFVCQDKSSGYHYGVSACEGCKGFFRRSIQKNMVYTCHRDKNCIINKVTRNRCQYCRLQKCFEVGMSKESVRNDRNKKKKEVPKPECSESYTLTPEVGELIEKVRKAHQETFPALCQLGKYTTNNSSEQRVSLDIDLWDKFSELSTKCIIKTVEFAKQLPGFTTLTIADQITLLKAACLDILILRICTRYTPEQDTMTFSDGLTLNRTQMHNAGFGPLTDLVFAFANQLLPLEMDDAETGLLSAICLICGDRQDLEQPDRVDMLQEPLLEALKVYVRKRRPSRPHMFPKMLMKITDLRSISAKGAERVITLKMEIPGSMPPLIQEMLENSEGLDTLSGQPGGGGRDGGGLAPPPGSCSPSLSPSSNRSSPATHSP
The assay is described as follows: ligand binding assay, RARα. Particulars: read-out: RAR Bind. K1 α.
Description: as §2

The target of assay [5] is T5, RXRα (Homo sapiens, UniProt P19793).
T5 construct: expressed in transfected cells
T5 sequence (P19793 1-462): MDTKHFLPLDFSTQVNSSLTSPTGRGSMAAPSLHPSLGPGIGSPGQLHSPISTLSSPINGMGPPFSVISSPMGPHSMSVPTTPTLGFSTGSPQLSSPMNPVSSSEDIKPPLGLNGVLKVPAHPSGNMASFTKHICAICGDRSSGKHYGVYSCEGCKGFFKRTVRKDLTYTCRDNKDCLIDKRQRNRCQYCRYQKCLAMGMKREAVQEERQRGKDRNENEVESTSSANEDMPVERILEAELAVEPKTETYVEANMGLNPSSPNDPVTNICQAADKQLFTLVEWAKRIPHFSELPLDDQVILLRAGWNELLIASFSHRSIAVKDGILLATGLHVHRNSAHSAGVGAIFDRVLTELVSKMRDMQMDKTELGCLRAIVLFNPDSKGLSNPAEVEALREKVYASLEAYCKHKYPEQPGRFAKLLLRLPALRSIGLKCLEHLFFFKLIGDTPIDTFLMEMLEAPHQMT
The assay is described as follows: holoreceptor transactivation assay, RXRα. Type of assay: cell-based. Particulars: for RXR Trans. efficacy α: efficacy as a percentage compared to the standard compound; for EC50: holoreceptor assay, read-out: RXR Trans. EC50 α.
Description: as §1

In assay [6] the target is T5, RXRα. The assay is described as follows: ligand binding assay, RXRα. Particulars: read-out: RXR Bind K1 α.
Description: as §2
For assay [7], the target named is T2, RXRβ. The assay is described as follows: ligand binding assay, RXRβ. Particulars: read-out: RXR Bind K1 β.
Description: The results of the ligand binding assay are expressed in Ki numbers.

Consider `CCCOc1cc2c(cc1\C(C)=C(F)/C=C/C(C)=C(\F)C(=O)O)C(C)(C)CCC2(C)C` [Compound 11, (2Z,4E,6E)-2,6-Difluoro-3-methyl-7-(5,5,8,8-tetramethyl-3-propoxy-5,6,7,8-tetrahydro-naphthalen-2-yl)-octa-2,4,6-trienoic acid], for which the Ki turned out to be 1720 nM in assay [1], 1800 nM in assay [4], 11 nM in assay [6] and 65 nM in assay [7]. Moreover, the “RXR Trans. efficacy β” value in assay [2] was found to be 24%. Besides, the values for the EC50 in assay [2], in assay [3] and in assay [5] were 43 nM, above 1000 nM and 3 nM, respectively. The “efficacy in activating RXRβ compared with RXRα and RXRγ” value (from here on “efficacy … compared with RXRα and RXRγ”) in assay [2] is listed as “significantly more effective in activating the RXRβ subtype”. Further, the “RAR Trans. efficacy β” value in assay [3] worked out at 25%. Further, the “RXR Trans. efficacy α” value in assay [5] was found to be 7%.

`CC/C(=C(F)/C=C/C(C)=C(\F)C(=O)O)c1cc2c(cc1OCOC)C(C)(C)CCC2(C)C` [Compound 21, (2Z,4E,6E)-2,6-Difluoro-7-(3-methoxymethoxy-5,5,8,8-tetramethyl-5,6,7,8-tetrahydro-naphthalen-2-yl)-3-methyl-nona-2,4,6-trienoic acid]: the Ki in assay [1] was 590 nM; in assay [4] it was 260 nM; in assay [6], 12 nM; in assay [7], 60 nM. Also, in assay [2], the “RXR Trans. efficacy β” value is given as 45%. The EC50 in assay [2] is 91 nM; in assay [3] it was 170 nM; in assay [5], 9 nM. In addition, in assay [2], the “efficacy … compared with RXRα and RXRγ” value was “significantly more effective in activating the RXRβ subtype”. Also, the “RAR Trans. efficacy β” value in assay [3] is on record as 24%. Also, the “RXR Trans. efficacy α” value in assay [5] is listed as 41%.

For `CCOc1cc2c(cc1\C(CC)=C(F)/C=C/C(C)=C(\F)C(=O)O)C(C)(C)CCC2(C)C` [Compound 27, (2Z,4E,6E)-7-(3-Ethoxy-5,5,8,8-tetramethyl-5,6,7,8-tetrahydro-naphthalen-2-yl)-2,6-difluoro-3-methyl-nona-2,4,6-trienoic acid], the Ki came to 1800 nM in assay [1], 930 nM in assay [4], 5 nM in assay [6] and 20 nM in assay [7]. Further, the “RXR Trans. efficacy β” value in assay [2] is 43%. In addition, the EC50 is 32 nM in assay [2], 95 nM in assay [3] and 4 nM in assay [5]. In addition, the “efficacy … compared with RXRα and RXRγ” value in assay [2] is listed as “significantly more effective in activating the RXRβ subtype”. In addition, in assay [3], the “RAR Trans. efficacy β” value worked out at 14%. In addition, in assay [5], the “RXR Trans. efficacy α” value stood at 30%.

Usually EC50 stands for the midpoint of the concentration-response curve.
